From US20200024278A1, “COMPOSITION COMPRISING ANTIBIOTIC COMPOUND AND AN HETEROCYCLIC COMPOUND AND THEIR USE IN PREVENTING OR TREATING BACTERIAL INFECTIONS” (MUTABILIS, priority 2016, published 2020)
Read-outs that look alike come from different tables or passages of the source.

How the values were obtained:
Assay in all cases: MIC, broth microdilution (CLSI), substance alone or ATB combined with compound at 4 or 8 μg/mL
[1] = tested on: KPN 6299; type: cell-based, K. pneumoniae
Outline: (§1)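 Growth inhibition endpoint, read visually after 16-20 h at 35° C in ambient air. Cation-adjusted Mueller-Hinton broth, inoculum 5·10^5 CFU/mL, CLSI M7-A7 protocol.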

[2] = tested on: KPN BAA-1898; type: cell-based, K. pneumoniae; conditions: KPN BAA-1898; for MIC: Klebsiella pneumoniae, BAA1898
Outline: as §1

[3] = tested on: KPN UFR42; type: cell-based, K. pneumoniae; conditions: for MIC: Klebsiella pneumoniae
Outline: as §1

[4] = tested on: SPN 49619; type: cell-based, S. pneumoniae; conditions: SPN 49619
Outline: as §1

[5] = tested on: ECL P99; type: cell-based, E. cloacae; conditions: ECL P99; for MIC: Enterobacter cloacae
Outline: as §1

[6] = tested on: SAU 29213; type: cell-based, S. aureus; conditions: SAU 29213
Outline: as §1

[7] = antibiotic alone, read-out: MIC ATB alone

CO/N=C(\C(=O)N[C@@H]1C(=O)N2C(C(=O)O)=C(COC(N)=O)CS[C@H]12)c1ccco1 [FUR, Cefuroxime, reference compound]
MIC ATB combined with Example 11 @8 μg/ml ([1]; with Example 11 at 8 μg/ml): <0.031 µg/mL
MIC ATB combined with Example 12 @8 μg/ml ([1]; with Example 12 at 8 μg/ml): <0.031 µg/mL
MIC ATB combined with Example 13 @8 μg/ml ([1]; with Example 13 at 8 μg/ml): 2 µg/mL
MIC ATB combined with Example 14 @8 μg/ml ([1]; with Example 14 at 8 μg/ml): <0.031 µg/mL
MIC ATB combined with Example 15 @4 μgml ([1]; with Example 15 at 4 μg/ml): <0.031 µg/mL
MIC ATB combined with Example 16 @4 μg/ml ([1]; with Example 16 at 4 μg/ml): <0.031 µg/mL
MIC ATB combined with Example 1 @8 μg/ml ([2]; with Example 1 @8 μg/ml): 2 µg/mL
MIC ATB combined with Example 1 @8 μg/ml ([2]; with Example 1 at 8 μg/ml): 2 µg/mL
MIC ATB combined with Example 7 @8 μgml ([2]; with Example 7 at 8 μg/ml): 8 µg/mL
MIC ATB combined with Example 9 @4 μg/ml ([2]; with Example 9 @4 μg/ml): <0.031 µg/mL
MIC ATB combined with Example 9 @4 μg/ml ([2]; with Example 9 at 4 μg/ml): <0.031 µg/mL
MIC ATB combined with Example 11 @8 μg/ml ([2]; with Example 11 at 8 μg/ml): <0.031 µg/mL
MIC ATB combined with Example 12 @8 μg/ml ([2]; with Example 12 at 8 μg/ml): <0.031 µg/mL
MIC ATB combined with Example 13 @8 μg/ml ([2]; with Example 13 at 8 μg/ml): 8 µg/mL
MIC ATB combined with Example 14 @8 μg/ml ([2]; with Example 14 at 8 μg/ml): <0.031 µg/mL
MIC ATB combined with Example 15 @4 μgml ([2]; with Example 15 at 4 μg/ml): <0.031 µg/mL
MIC ATB combined with Example 16 @4 μg/ml ([2]; with Example 16 at 4 μg/ml): <0.031 µg/mL
MIC [2, 7]: > 512 µg/mL
MIC ([2]; substance alone, read-out: MIC): > 512 µg/mL
MIC ATB combined with Example 1 @8 μg/ml ([3]; KPN UFR42, with Example 1 @8 μg/ml): >32 µg/mL
MIC ATB combined with Example 1 @8 μg/ml ([3]; KPN UFR42, with Example 1 at 8 μg/ml): >32 µg/mL
MIC ATB combined with Example 7 @8 μgml ([3]; KPN UFR42, with Example 7 at 8 μg/ml): >32 µg/mL
MIC ATB combined with Example 9 @4 μg/ml ([3]; KPN UFR42, with Example 9 @4 μg/ml): >32 µg/mL
MIC ATB combined with Example 9 @4 μg/ml ([3]; KPN UFR42, with Example 9 at 4 μg/ml): >32 µg/mL
MIC ATB combined with Example 11 @8 μg/ml ([3]; KPN UFR42, with Example 11 at 8 μg/ml): <0.031 µg/mL
MIC ATB combined with Example 12 @8 μg/ml ([3]; KPN UFR42, with Example 12 at 8 μg/ml): <0.031 µg/mL
MIC ATB combined with Example 13 @8 μg/ml ([3]; KPN UFR42, with Example 13 at 8 μg/ml): >32 µg/mL
MIC ATB combined with Example 14 @8 μg/ml ([3]; KPN UFR42, with Example 14 at 8 μg/ml): <0.031 µg/mL
MIC ATB combined with Example 15 @4 μgml ([3]; KPN UFR42, with Example 15 at 4 μg/ml): <0.031 µg/mL
MIC ATB combined with Example 16 @4 μg/ml ([3]; KPN UFR42, with Example 16 at 4 μg/ml): <0.031 µg/mL
MIC [3]: > 256 µg/mL
MIC ([3]; KPN UFR42, antibiotic alone, read-out: MIC ATB alone): > 32 µg/mL
MIC ATB combined with Example 1 @8 μg/ml ([4]; with Example 1 @8 μg/ml): 0.25 µg/mL
MIC ATB combined with Example 1 @8 μg/ml ([4]; with Example 1 at 8 μg/ml): 0.25 µg/mL
MIC ATB combined with Example 7 @8 μgml ([4]; with Example 7 at 8 μg/ml): 0.25 µg/mL
MIC ATB combined with Example 9 @4 μg/ml ([4]; with Example 9 @4 μg/ml): <=0.031 μg/mL
MIC ATB combined with Example 9 @4 μg/ml ([4]; with Example 9 at 4 μg/ml): <=0.031 μg/mL
MIC ATB combined with Example 11 @8 μg/ml ([4]; with Example 11 at 8 μg/ml): 0.063 µg/mL
MIC ATB combined with Example 12 @8 μg/ml ([4]; with Example 12 at 8 μg/ml): <0.031 µg/mL
MIC ATB combined with Example 13 @8 μg/ml ([4]; with Example 13 at 8 μg/ml): 0.25 µg/mL
MIC ATB combined with Example 14 @8 μg/ml ([4]; with Example 14 at 8 μg/ml): <0.031 µg/mL
MIC ATB combined with Example 15 @4 μgml ([4]; with Example 15 at 4 μg/ml): <0.031 µg/mL
MIC ATB combined with Example 16 @4 μg/ml ([4]; with Example 16 at 4 μg/ml): <0.031 µg/mL
MIC ([4]; Streptococcus pneumoniae, antibiotic alone, read-out: MIC ATB alone): 0.25 µg/mL
MIC ATB combined with Example 1 @8 μg/ml ([5]; with Example 1 @8 μg/ml): <=0.031 μg/mL
MIC ATB combined with Example 1 @8 μg/ml ([5]; with Example 1 at 8 μg/ml): <=0.031 μg/mL
MIC ATB combined with Example 7 @8 μgml ([5]; with Example 7 at 8 μg/ml): >32 µg/mL
MIC ATB combined with Example 9 @4 μg/ml ([5]; with Example 9 @4 μg/ml): <0.031 µg/mL
MIC ATB combined with Example 9 @4 μg/ml ([5]; with Example 9 at 4 μg/ml): <0.031 µg/mL
MIC ATB combined with Example 11 @8 μg/ml ([5]; with Example 11 at 8 μg/ml): <0.031 µg/mL
MIC ATB combined with Example 12 @8 μg/ml ([5]; with Example 12 at 8 μg/ml): <0.031 µg/mL
MIC ATB combined with Example 13 @8 μg/ml ([5]; with Example 13 at 8 μg/ml): 16 µg/mL
MIC ATB combined with Example 14 @8 μg/ml ([5]; with Example 14 at 8 μg/ml): <0.031 µg/mL
MIC ATB combined with Example 15 @4 μgml ([5]; with Example 15 at 4 μg/ml): <0.031 µg/mL
MIC ATB combined with Example 16 @4 μg/ml ([5]; with Example 16 at 4 μg/ml): <0.031 µg/mL
MIC [5, 7]: > 512 µg/mL
MIC ([5]; substance alone, read-out: MIC): > 512 µg/mL
MIC ATB combined with Example 1 @8 μg/ml ([6]; with Example 1 @8 μg/ml): 1 µg/mL
MIC ATB combined with Example 1 @8 μg/ml ([6]; with Example 1 at 8 μg/ml): 1 µg/mL
MIC ATB combined with Example 7 @8 μgml ([6]; with Example 7 at 8 μg/ml): 1 µg/mL
MIC ATB combined with Example 9 @4 μg/ml ([6]; with Example 9 @4 μg/ml): <0.031 µg/mL
MIC ATB combined with Example 9 @4 μg/ml ([6]; with Example 9 at 4 μg/ml): <0.031 µg/mL
MIC ATB combined with Example 11 @8 μg/ml ([6]; with Example 11 at 8 μg/ml): <0.031 µg/mL
MIC ATB combined with Example 12 @8 μg/ml ([6]; with Example 12 at 8 μg/ml): <0.031 µg/mL
MIC ATB combined with Example 13 @8 μg/ml ([6]; with Example 13 at 8 μg/ml): 1 µg/mL
MIC ATB combined with Example 14 @8 μg/ml ([6]; with Example 14 at 8 μg/ml): <0.031 µg/mL
MIC ATB combined with Example 15 @4 μgml ([6]; with Example 15 at 4 μg/ml): <0.031 µg/mL
MIC ATB combined with Example 16 @4 μg/ml ([6]; with Example 16 at 4 μg/ml): <0.031 µg/mL
MIC ([6]; Staphylococcus aureus, antibiotic alone, read-out: MIC ATB alone): 2 µg/mL
